BigSolDB 2.1

O=[N+]([O-])/N=C1\NCCN1Cc1ccc(Cl)nc1
solubility (mole fraction)
Settings | 293.15 K | 298.15 K | 303.15 K | 308.15 K | 313.15 K | 318.15 K | 323.15 K | 328.15 K | 333.15 K
in ethanol | 0.0006 | 0.0008 | 0.0009 | 0.0012 | 0.0015 | 0.0019 | 0.0025 | 0.003 | 0.0036
in ethyl acetate | 0.0027 | 0.0029 | 0.0034 | 0.0039 | 0.0044 | 0.0053 | 0.0061 | 0.0071 | 0.0084
in methanol | 0.0012 | 0.0015 | 0.0018 | 0.0023 | 0.0027 | 0.0036 | 0.0044 | 0.0054 | 0.0067
in methyl acetate | 0.0037 | 0.0042 | 0.0048 | 0.0057 | 0.0067 | 0.0078 | 0.0092 | 0.0107 | –
in n-butanol | 0.0004 | 0.0005 | 0.0006 | 0.0008 | 0.001 | 0.0013 | 0.0017 | 0.0021 | 0.0026
in n-butyl acetate | 0.0015 | 0.0019 | 0.0021 | 0.0027 | 0.0032 | 0.0035 | 0.0037 | 0.0041 | 0.0048
in n-propanol | 0.0005 | 0.0006 | 0.0008 | 0.0011 | 0.0013 | 0.0017 | 0.0022 | 0.0028 | 0.0034
